# Assays:
# [1] = system: HDAC class I (p21 reporter gene); test: HDAC subtype reporter gene assay, p21-promoter luciferase in HeLa cells; format: cell-based; details: Homo sapiens, M-HeLa, read-out: % of SAHA Response for HDAC class I at 10 μM (p21 reporter gene), 24 hours
# Protocol: (§1) Measurement of inhibition of HDAC subtypes activity in cells by reporter gene assay: HDAC subtype selectivity inhibition assay of tested compounds was carried out by several reporter gene assays experiments. Briefly, HeLa cells were seeded in 96-well plates the day before transfection to give a confluence of 50-80%. Cells were transfected with one of reporter gene plasmids containing a promoter sequences or response elements upstream of a luciferase gene construct using FuGene6 transfection reagent according to the manufacturer's instructions (Roche). The promoters or response elements including p21-promoter, gdf11-promoter, MEF-binding element (MEF2), Nur77-promoter were fused upstream to the luciferase gene reporter construct. For normalizing the transfection efficiency, a GFP expression plasmid was cotransfected. Cells were allowed to express protein for 24 hours followed by addition of individual compounds or the vehicle (DMSO). 24 hours later, the cells were harvested and the luciferase assays were performed using the luciferase assay kit according to the manufacturer's instructions (Promega). To normalize the data from the luciferase assays, GFP activity from transfected cells was measured in a microtiter-plate reading fluorimeter capable of excitation at a wavelength at 485 nm and detection of emitted light at 527 nm.
# [2] = system: lysine acetylation; test: ELISA assay of acetylation of lysine in HeLa cells; format: cell-based; details: Homo sapiens, M-HeLa, 24 hours
# Source text: Measurement of acetylation activity in cells on substrates:
# ELISA Assay of Acetylation of Lysine
# This assay is used to measure in vivo inhibition of HDAC6 in a cytoblot assay.
# Materials and Reagent: • 1. 24-well tissue culture • 2. DMEM Medium containing 10% FBS • 3. 96-well white plate • 4. HeLa cell line • 5. M-PER Mammalian Protein Extraction Reagent (Pierce) • 6. Bradford assay reagent • 7. Acetylated-lysine polyclonal Antibody (Cell Signaling) • 8. HRP-labeled anti-rabbit IgG (Upstate) • 9. Coating Buffer: 15 mM Na2CO3, 35 mM NaHCO3 (pH 9.6) • 10. 10×PBS: 0.58M Na2HPO4, 0.17M NaH2PO4, 0.68M NaCl (pH 7.4) • 11. Wash Buffer:1×PBS containing 0.05% Tween-20 (PBST) • 12. Blocking Buffer:10 mg/ml bocine serum albumin (BSA) in PBS • 13. Antibody Dilution Buffer: 5 mg/ml BSA in PBST • 14. Enhanced chemiluminescence (ECL) (Amersham)
# Procedure for performing the assay in 96-well plate: • 1. HeLa cells were seeded at a density of 60000 cells/500 μl/well in 24-well plate and incubated at 37° C. for 24 hours. • 2. Compounds were added and incubated for 24 hours at 37° C. • 3. Culture medium was removed, then washes the cells twice with ice-cold PBS. • 4. Add 100 μl/well of Protein Extraction Reagent and gently shake the mixture for 5 minutes. • 5. Collect the lysate to a 96-well plate respectively. Determine the concentration of protein by Bradford assay. • 6. Coat the wells of a 96-well white plate with 100 μl/well of 2.5 μg whole cell protein in Coating Buffer by incubating overnight at 4° C. • 7. Discard the uncoated proteins and wash the coated wells three times with 200 μl/well of PBST. • 8. Block coated wells by incubating the plate with 200 μl/well of Blocking Buffer for 1 hour at 37° C. • 9. Wells were aspirated and washed three times with 200 μl/well of PBST. • 10. After aspirating, 50 μl/well of Antibody Dilution Buffer containing acetylated-lysine polyclonal antibody (1:1000) were added to each well and incubated for 2 hour at 37° C. • 11. Wells were aspirated and washed three times with 200 μl/well of PBST. • 12. 50 μl/well of Antibody Dilution Buffer containing HRP-labeled anti-rabbit IgG (1:2000) were added to each well and incubated for 2 hour at 37° C. • 13. Wells were aspirated and washed three times with 200 μl/well of PBST. • 14. Wells were washed three times with 200 μl/well of purified water. • 15. Add 50 μl/well of ECL mixture, then read the plates on the plate reader.
# [3] = system: Hut-78 human T lymphoma cell line; test: Anti-cell proliferation (MTS), Hut-78; format: cell-based; details: HuT78, 72 hours
# Protocol: (§2) Measurement of in vivo cell proliferation:
# (§3) Tumor cells were trypsinized and plated into 96-well plates at 3,000 per well and incubated in complete medium with 10% FBS for 24 hours. Compounds were added over a final concentration range of 100 μmol/L to 100 nmol/L in 0.1% DMSO and incubated for 72 hours in complete medium. The effects on proliferation were determined by addition of MTS reagent (Promega) according to the instruction, incubation for 2 hours at 37° C. in CO2 incubator, and record the absorbance at 490 nm using an ELISA plate reader.
# [4] = system: A549 human lung cancer cell line; test: Anti-cell proliferation (MTS), A549; format: cell-based; details: 72 hours
# Protocol: as §2, §3
# [5] = system: HeLa human cervical cancer cell line; test: Anti-cell proliferation (MTS), HeLa; format: cell-based; details: 72 hours
# Protocol: as §2, §3
# [6] = system: HDAC4/5 (MEF2 reporter gene); test: HDAC subtype reporter gene assay, MEF-binding element (MEF2) luciferase in HeLa cells; format: cell-based; details: Homo sapiens, M-HeLa, read-out: % of SAHA Response for HDAC4/5 at 10 μM (MEF2 reporter gene), 24 hours
# Protocol: as §1
# [7] = system: HL60 human leukemia cell line; test: Anti-cell proliferation (MTS), HL60; format: cell-based; details: HL-60, 72 hours
# Protocol: as §2, §3
# [8] = system: total HDAC enzyme (HeLa extract); test: In vitro inhibition of total HDAC enzyme activity (HDAC Fluorimetric Assay/Drug Discovery Kit, BIOMOL); format: biochemical, human
# Protocol: Measurement of in vitro inhibition of total HDAC enzyme activity:
# The in vitro inhibition of total HDAC enzyme was determined by HDAC Fluorimetric Assay/Drug Discovery Kit (BIOMOL) according to manufacture's instruction. • 1. Add Assay buffer, diluted trichostatin A or test inhibitor to appropriate wells of the microtiter plate. Following table lists examples of various assay types and the additions required for each test.
# • 2. Add diluted HeLa extract or other HDAC sample to all wells except those that are to be “No Enzyme Controls” (Blank). • 3. Allow diluted Fluor de LyS™ Substrate and the samples in the microtiter plate to equilibrate to assay temperature (25° C.). • 4. Initiate HDAC reactions by adding diluted substrate (25 μl) to each well and mixing thoroughly. • 5. Allow HDAC reactions to proceed for desired length of time and then stop them by addition of Fluor de Lys™ Developer (50 μl). Incubate plate at room temperature (25° C.) for 10-15 min. • 6. Read samples in a microtiter-plate reading fluorimeter capable of excitation at a wavelength in the range 350-380 nm and detection of emitted light in the range 440-460 nm.
Compound,Emax at 10 µM [1],fold induction at 10 µM [2],GI50 [3],GI50 [4],GI50 [5],Emax at 10 µM [6],GI50 [7],% of Inhibition on Total HDAC Enzyme at 30 μM [8]
"Cc1[nH]c(/C=N/N=C2\C(=O)Nc3ccc(F)cc32)c(C)c1C(=O)NCCCCCCCC(=O)NO [Example 26, 8-(5-(((5-fluoro-2-oxoindolin-3-ylidene)hydrazono)methyl)-2,4-dimethyl-1H-pyrrole-3-carboxamido)-N-hydroxyoctanamide]",53%,2.42,14.1 µM,35.5 µM,25.7 µM,20%,9.33 µM,98%
"Cc1[nH]c(/C=N/N=C2\C(=O)Nc3ccc(F)cc32)c(C)c1C(=O)NCCCCCCCC(=O)Nc1ccc(F)cc1N [Example 27, 8-(5-(((5-fluoro-2-oxoindolin-3-ylidene)hydrazono)methyl)-2,4-dimethyl-1H-pyrrole-3-carboxamido)-N-(2-amino-4-fluorophenyl)octanamide]",8%,2.13,6.92 µM,> 100 µM,> 100 µM,37%,5.89 µM,5%
"Cc1[nH]c(/C=N/N=C2\C(=O)Nc3ccc(F)cc32)c(C)c1C(=O)NCCCCCCCC(=O)Nc1ccccc1N [Example 28, 8-(5-(((5-fluoro-2-oxoindolin-3-ylidene)hydrazono)methyl)-2,4-dimethyl-1H-pyrrole-3-carboxamido)-N-(2-aminophenyl)octanamide]",36%,1.7,4.27 µM,36.3 µM,28.2 µM,32%,4.37 µM,18%
"Nc1cc(F)ccc1NC(=O)CCCCCCCNC(=O)c1ccc(/C=N/N=C2\C(=O)Nc3ccc(F)cc32)cc1 [Example 36, 8-(4-(((5-fluoro-2-oxoindolin-3-ylidene)hydrazono)methyl)benzamido)-N-(2-amino-4-fluorophenyl)octanamide]",9%,1.35,10.7 µM,30.2 µM,55 µM,50%,14.8 µM,−16%
"Nc1ccccc1NC(=O)CCCCCNC(=O)c1ccc(/C=C2\C(=O)Nc3ccc(F)cc32)cc1 [Example 39, 6-(4-((5-fluoro-2-oxoindolin-3-ylidene)methyl)benzamido)-N-(2-aminophenyl)hexanamide]",67%,1.73,4.17 µM,28.8 µM,22.9 µM,45%,4.17 µM,31%
"Nc1cc(F)ccc1NC(=O)CCCCCNC(=O)c1ccc(/C=C2\C(=O)Nc3ccc(F)cc32)cc1 [Example 40, 6-(4-((5-fluoro-2-oxoindolin-3-ylidene)methyl)benzamido)-N-(2-amino-4-fluorophenyl)hexanamide]",19%,1.5,4.17 µM,36.3 µM,33.9 µM,56%,5.75 µM,22%
"Nc1ccccc1NC(=O)CCCCCNC(=O)c1cccc(/C=C2\C(=O)Nc3ccc(F)cc32)c1 [Example 44, 6-(3-((5-fluoro-2-oxoindolin-3-ylidene)methyl)benzamido)-N-(2-aminophenyl)hexanamide]",97%,1.42,4.37 µM,19.5 µM,11 µM,85%,2.95 µM,30%
"Nc1cc(F)ccc1NC(=O)CCCCNC(=O)c1cccc(/C=C2\C(=O)Nc3ccc(F)cc32)c1 [Example 50, 5-(3-((5-fluoro-2-oxoindolin-3-ylidene)methyl)benzamido)-N-(2-amino-4-fluorophenyl)pentanamide]",7%,1.08,6.76 µM,35.5 µM,20.9 µM,43%,3.98 µM,−3%
"Nc1ccccc1NC(=O)CCCCCCCNC(=O)c1cccc(/C=C2\C(=O)Nc3ccc(F)cc32)c1 [Example 54, 8-(3-((5-fluoro-2-oxoindolin-3-ylidene)methyl)benzamido)-N-(2-aminophenyl)octanamide]",72%,1.34,3.89 µM,24 µM,18.2 µM,53%,2.46 µM,40%
"O=C(CCCCCCCNC(=O)c1cccc(/C=C2\C(=O)Nc3ccc(F)cc32)c1)NO [Example 56, 8-(3-((5-fluoro-2-oxoindolin-3-ylidene)methyl)benzamido)-N-hydroxyoctanamide]",65%,1.7,4.57 µM,28.8 µM,17.4 µM,62%,5.62 µM,93%

# Source: patent US7863315B2, “2-indolinone derivatives as selective histone deacetylase inhibitors” (Shenzhen Chipscreen Biosciences, Ltd., priority 2008, dated 2011)
